# Experimental data published in patent US7037500B1, “Method for using phagocytic particles and ATP receptors to deliver antigens to MHC class I receptors to induce immunity against microbial pathogens or tumors or to suppress immunity” (The Trustees of Columbia University in the City of New York, priority 2000, dated 2006).
# T1: P2X7 receptors (Mus musculus, UniProt Q9Z1M0)
# T1 sequence (Q9Z1M0 1-595): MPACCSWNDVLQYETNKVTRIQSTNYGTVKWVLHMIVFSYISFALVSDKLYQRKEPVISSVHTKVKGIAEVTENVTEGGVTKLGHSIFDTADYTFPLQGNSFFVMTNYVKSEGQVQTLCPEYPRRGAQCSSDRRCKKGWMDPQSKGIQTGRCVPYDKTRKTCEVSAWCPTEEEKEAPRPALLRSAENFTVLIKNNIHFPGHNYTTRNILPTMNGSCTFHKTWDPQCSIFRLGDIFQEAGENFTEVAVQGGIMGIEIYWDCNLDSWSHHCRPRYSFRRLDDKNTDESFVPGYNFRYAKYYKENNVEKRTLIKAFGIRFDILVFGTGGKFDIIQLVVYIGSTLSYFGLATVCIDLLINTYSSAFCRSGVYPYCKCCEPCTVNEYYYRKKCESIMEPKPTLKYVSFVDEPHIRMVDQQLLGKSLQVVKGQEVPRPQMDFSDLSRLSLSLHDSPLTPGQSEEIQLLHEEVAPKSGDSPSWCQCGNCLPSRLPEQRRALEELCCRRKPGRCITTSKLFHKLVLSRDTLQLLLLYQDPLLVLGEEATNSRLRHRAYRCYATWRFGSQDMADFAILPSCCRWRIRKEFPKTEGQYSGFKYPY
# T2: P2X7 receptors of J774 cells (Mus musculus, UniProt Q9Z1M0)
# T2 construct: P2X7 receptors of J774 cells; endogenous in cells; host or cells: J774 macrophage-like cells
# T2 sequence (Q9Z1M0 1-595): T1 sequence (Q9Z1M0 1-595)
# B1: Soluble Ova protein: soluble ovalbumin protein (protein, UniProt P01012 2-386, looked up)
# Ovalbumin: GSIGAASMEFCFDVFKELKVHHANENIFYCPIAIMSALAMVYLGAKDSTRTQINKVVRFDKLPGFGDSIEAQCGTSVNVHSSLRDILNQITKPNDVYSFSLASRLYAEERYPILPEYLQCVKELYRGGLEPINFQTAADQARELINSWVESQTNGIIRNVLQPSSVDSQTAMVLVNAIVFKGLWEKAFKDEDTQAMPFRVTEQESKPVQMMYQIGLFRVASMASEKMKILELPFASGTMSMLVLLPDEVSGLEQLESIINFEKLTEWTSSNVMEERKIKVYLPRMKMEEKYNLTSVLMAMGITDVFSSSANLSGISSAESLKISQAVHAAHAEINEAGREVVGSAEAGVDAASVSEEFRADHPFLFCIKHIATNAVLFFGRCVSP
# Key:
# P2X7 receptors = target: T1, P2X7 receptors; conditions: cited from earlier work
# [1] = target: T2, P2X7 receptors of J774 cells; conditions: previous study (8); cited from earlier work
# [2] = test system: Mouse bone marrow derived dendritic cells / isogenic spleen derived CD8 lymphocytes; assay: CTL assay, 3H-thymidine uptake of CD8 lymphocytes co-incubated with treated dendritic cells; type: cell-based
# Description: It is shown herein that if a peptide such as ovalbumin is loaded into the IgG opsonized red blood cell resealed ghosts and then incubated with mouse bone derived dendritic cells—the dendritic cells will present class I MHC and induce cytotoxic CD8 lymphocytes as measured by the capacity of these lymphocytes to proliferate in response to co-incubation of the dendritic cells with CD8 lymphocytes. (Table 1)
# Table 1: Mouse Bone marrow derived dendritic cells prepared as described in FIG. 3 were incubated with the appropriate isogenic spleen derived CD8 lymphocytes for several hours and then the CTL response was assayed by radiolabeled thymidine incorporation into the lymphocytes indicating a proliferative response mediated via class I MHC.
molecule,measurement,setting,value
Nc1ncnc2c1ncn2[C@@H]1O[C@H](COP(=O)(O)OP(=O)(O)OP(=O)(O)O)[C@@H](O)[C@H]1O [ATP^4−],[ATP4-] needed to induce pore formation by P2X7 receptors,P2X7 receptors,> 130 µM
Cc1ccc(N(CC(=O)O)CC(=O)O)c(OCCOc2cc3cc(-c4ncc(C(=O)O)o4)oc3cc2N(CC(=O)O)CC(=O)O)c1 [fura 2],penetration of plasma membrane pores formed by ATP4-activated P2X7 receptors,[1],penetrate plasma membrane pores
"Soluble Ova peptide: soluble ovalbumin peptide (amino acids 257–264) (ESIINFEK; UniProt P01012 257-264, looked up, fragment)",CTL Assay- 3H-thymidine uptake (proliferation assay-cpm),[2]; dendritic cells treated with 100 ng/ml,"90,000 cpm"
B1,CTL Assay- 3H-thymidine uptake (proliferation assay-cpm),[2]; dendritic cells treated with 10 mg/ml,"160,000 cpm"
